“And” between values parts separate entries of the source, which are not always exact repeats. Equal values may be shown once.
Tested on: DSS-induced colitis
Experiment: DSS-induced colitis mouse model (experimental ulcerative colitis)
Type: in vivo
Design: Colon wet weight: unit not given here
Method: In this Example, mouse models to which dextran sulfate sodium salt (DSS) is used will be described as colitis models. When DSS is administered by being mixed in drinking water of the mouse, an experimental ulcerative colitis model similar to human ulcerative colitis in terms of symptoms such as suppression of body weight increase, blood in stools, and anemia and formation of colon erosion and further lacking intestinal lesion was build (Non-Patent Literature 3). A suppression effect of Compound X on colitis in such a model as the representative colitis model was examined. For the evaluation items, recovery from diarrhea and body weight loss by colitis, and the length and weight of the colon were examined as changes in colon properties, which are widely known to occur by DSS-induced colitis.
For treatment, C57BL/6J, male mice were purchased from CHARLES RIVER LABORATORIES JAPAN, INC. in accordance with previous literature (Non-Patent Literature 2) and 5-week old mice with no abnormal general conditions during quarantine and acclimation period were used for the experiment. After acclimation, the animals were divided in such a way as to be 1 mouse per cage. DSS used in the experiment having a molecular weight of from 36,000 to 50,000 Da was purchased from MP Bio Japan. DSS was added to tap water in such a way as to be 3% and suspended for causing colitis. The suspension was prepared once every 3 days and freely provided to each of the mice as water supply. A solution from which DSS was removed was provided as water supply to a non-pathological control group.
After group division, each of the test substances of Table 1 was suspended in a solution of 0.5% sodium carboxymethyl cellulose (hereinafter, CMC, Nacalai Tesque Inc.) in such a way as to be each treatment of Table 1 and orally administered once daily. […] These control groups, Groups 1 and 2, were orally administered, as the test substance, with the 0.5% CMC solution used as the medium.
Drinking water after the group division was typical water for drinking.
The test started with 6 mice in Group No. 1 and 10 mice each in Group Nos. 2 to 6.
Body weights were measured on the DSS administration starting day (day −5), DSS administration last day (day 0), on day 3, day 5, day 8, and day 10 of test substance administration.
The therapeutic effect was evaluated by observing changes in blood in stools caused by enteritis as the body weight recovery alone can be considered that the body weight increase might have been promoted simply by the growth. Mice feces were observed on the DSS administration starting day (day-5), DSS administration last day (day 0), on day 3, day 5, day 8, and day 10 of test substance administration and scored in accordance with the criteria of Table 2.
For evaluating the therapeutic effect of Compound X, the length and weight of the colon were measured. The mice were euthanized under anesthesia on day 10 of test substance administration and dissected to remove the colon. The removed colon was quickly measured for a length in a relaxed state. Subsequently, feces in the intestinal tract were removed and sufficiently washed with phosphate buffered saline (Wako Pure Chemical Industries, Ltd.) and measured for a wet weight.

[1] = DSS + 1 mg/kg/day oral, day 10, mean ± SD
[2] = DSS + 10 mg/kg/day oral, day 10, mean ± SD
[3] = DSS + 100 mg/kg/day oral, day 10, mean ± SD

Question: With `CC1=C(/C=C/C(C)=C/C=C/C(C)=C/C=C/C=C(C)/C=C/C=C(C)/C=C/C2=C(C)C(=O)[C@@H](OC(=O)CNC(=O)NCCCC(=O)O)CC2(C)C)C(C)(C)C[C@H](OC(=O)CNC(=O)NCCCC(=O)O)C1=O.NCCCC[C@H](N)C(=O)O.NCCCC[C@H](N)C(=O)O` [Compound X, 4-(3-{4-[18-(4(S)-[3-(3-Carboxypropyl)ureidoacetoxy]-2,6,6-trimethyl-3-oxocyclohexa-1-enyl)-3,7,12,16-tetramethyloctadeca-1(E),3(E),5(E),7(E),9(E),11(E),13(E),15(E),17(E)-nonaenyl]-3,5,5-trimethyl-2-oxocyclohex-3-enyl-1(S)-oxycarbonylmethyl}ureido)butyric acid dilysine salt] as the molecule, how does the “Blood feces score versus DSS administration group” value (100 mg/kg/day oral, day 5 of test substance administration, in words) read?
Answer: Its value is “improved blood feces score”.

Question: What about the “Body weight recovery compared with the DSS administration only” value (100 mg/kg/day oral, in words) of the same molecule?
Answer: The value was “body weight recovery was even further significant”.

Question: What about the Body weight (DSS + 1 mg/kg/day oral, day 0 (DSS last day), mean ± SD) of the same molecule?
Answer: The Body weight was 20.3 ± 0.8 g.

Question: What about the “Fecal scoring average value” (DSS + 1 mg/kg/day oral, day 0 (DSS last day), score 0-3, mean ± SD) of the same molecule?
Answer: Its value is 1.2 ± 0.4.

Question: What about the “Fecal scoring average value” (DSS + 1 mg/kg/day oral, day 3, score 0-3, mean ± SD) of the same molecule?
Answer: The value was 1.7 ± 0.8.

Question: And the Body weight (DSS + 1 mg/kg/day oral, day 3 of administration, mean ± SD)?
Answer: The Body weight was 14.7 ± 1.3 g.

Question: And the Body weight (DSS + 1 mg/kg/day oral, day 5, mean ± SD)?
Answer: The Body weight was 15.1 ± 1.5 g.

Question: What about the “Fecal scoring average value” (DSS + 1 mg/kg/day oral, day 5, score 0-3, mean ± SD) of the same molecule?
Answer: The value was 1.7 ± 0.6.

Question: What about the Body weight (DSS + 1 mg/kg/day oral, day 8, mean ± SD) of the same molecule?
Answer: Its Body weight is 18.0 ± 2.4 g.

Question: And the “Fecal scoring average value” (DSS + 1 mg/kg/day oral, day 8, score 0-3, mean ± SD)?
Answer: Its value is 0.0 ± 0.0.

Question: What about the Body weight [1] of the same molecule?
Answer: Its Body weight is 19.4 ± 2.2 g.

Question: And the Colon wet weight [1]?
Answer: Its Colon wet weight is 269.0 ± 8.4.

Question: And the “Fecal scoring average value” (DSS + 1 mg/kg/day oral, day 10, score 0-3, mean ± SD)?
Answer: Its value is 0.0 ± 0.0.

Question: What about the Colon length (DSS + 1 mg/kg/day oral, day 10 of administration, mean ± SD, 1 mg/kg/day) of the same molecule?
Answer: The Colon length was 6.72 cm and 6.72 ± 0.28 cm.

Question: What about the Body weight (DSS + 1 mg/kg/day oral, day −5 (DSS start, before test substance), C57BL/6J mice, mean ± SD) of the same molecule?
Answer: Its Body weight is 20.3 ± 0.9 g.

Question: What about the “Fecal scoring average value” (DSS + 1 mg/kg/day oral, day −5 (before test substance), score 0-3 per Table 2, mean ± SD) of the same molecule?
Answer: Its value is 0.0 ± 0.0.

Question: What about the Body weight (DSS + 10 mg/kg/day oral, day 0 (DSS last day), mean ± SD) of the same molecule?
Answer: Its Body weight is 18.9 ± 1.1 g.

Question: What about the “Fecal scoring average value” (DSS + 10 mg/kg/day oral, day 0 (DSS last day), score 0-3, mean ± SD) of the same molecule?
Answer: Its value is 1.2 ± 0.4.

Question: And the Body weight (DSS + 10 mg/kg/day oral, day 3, mean ± SD)?
Answer: The Body weight was 14.9 ± 1.4 g.

Question: And the “Fecal scoring average value” (DSS + 10 mg/kg/day oral, day 3, score 0-3, mean ± SD)?
Answer: Its value is 1.3 ± 0.5.

Question: And the Body weight (DSS + 10 mg/kg/day oral, day 5, mean ± SD)?
Answer: The Body weight was 15.9 ± 1.9 g.

Question: And the “Fecal scoring average value” (DSS + 10 mg/kg/day oral, day 5, score 0-3, mean ± SD)?
Answer: The value was 1.7 ± 0.5.

Question: And the Body weight (DSS + 10 mg/kg/day oral, day 8, mean ± SD)?
Answer: The Body weight was 18.5 ± 2.1 g.

Question: What about the “Fecal scoring average value” (DSS + 10 mg/kg/day oral, day 8, score 0-3, mean ± SD) of the same molecule?
Answer: The value was 0.0 ± 0.0.

Question: What about the Body weight [2] of the same molecule?
Answer: Its Body weight is 19.8 ± 1.7 g.

Question: What about the Colon length [2] of the same molecule?
Answer: The Colon length was 6.32 ± 0.16 cm.

Question: What about the Colon wet weight [2] of the same molecule?
Answer: The Colon wet weight was 255.0 ± 12.4.

Question: What about the “Fecal scoring average value” (DSS + 10 mg/kg/day oral, day 10, score 0-3, mean ± SD) of the same molecule?
Answer: The value was 0.0 ± 0.0.

Question: What about the Body weight (DSS + 10 mg/kg/day oral, day −5 (DSS start, before test substance), mean ± SD) of the same molecule?
Answer: The Body weight was 20.1 ± 0.9 g.

Question: And the “Fecal scoring average value” (DSS + 10 mg/kg/day oral, day −5 (before test substance), score 0-3, mean ± SD)?
Answer: Its value is 0.0 ± 0.0.

Question: What about the Body weight (DSS + 100 mg/kg/day oral, day 0 (DSS last day), mean ± SD) of the same molecule?
Answer: The Body weight was 19.0 ± 1.0 g.

Question: And the “Fecal scoring average value” (DSS + 100 mg/kg/day oral, day 0 (DSS last day), score 0-3, mean ± SD)?
Answer: The value was 1.0 ± 0.0.

Question: And the Body weight (DSS + 100 mg/kg/day oral, day 3, mean ± SD)?
Answer: Its Body weight is 15.2 ± 1.8 g.

Question: What about the “Fecal scoring average value” (DSS + 100 mg/kg/day oral, day 3, score 0-3, mean ± SD) of the same molecule?
Answer: Its value is 1.7 ± 0.8.

Question: What about the Body weight (DSS + 100 mg/kg/day oral, day 5, mean ± SD) of the same molecule?
Answer: The Body weight was 16.7 ± 2.2 g.

Question: And the “Fecal scoring average value” (DSS + 100 mg/kg/day oral, day 5, score 0-3, mean ± SD)?
Answer: The value was 1.0 ± 0.0.

Question: And the Body weight (DSS + 100 mg/kg/day oral, day 8, mean ± SD)?
Answer: Its Body weight is 19.8 ± 0.9 g.

Question: What about the “Fecal scoring average value” (DSS + 100 mg/kg/day oral, day 8, score 0-3, mean ± SD) of the same molecule?
Answer: The value was 0.0 ± 0.0.

Question: What about the Colon wet weight (DSS + 100 mg/kg/day oral, day 10) of the same molecule?
Answer: Its Colon wet weight is 238.6.

Question: What about the Body weight [3] of the same molecule?
Answer: Its Body weight is 21.0 ± 0.7 g.

Question: And the Colon wet weight [3]?
Answer: The Colon wet weight was 238.6 ± 11.3.

Question: And the Colon length (DSS + 100 mg/kg/day oral, day 10, mean ± SD, 100 mg/kg/day)?
Answer: The Colon length was 6.80 cm and 6.80 ± 0.12 cm.

Question: And the “Fecal scoring average value” (DSS + 100 mg/kg/day oral, day 10, score 0-3, mean ± SD)?
Answer: Its value is 0.0 ± 0.0.

Question: What about the Body weight (DSS + 100 mg/kg/day oral, day −5 (DSS start, before test substance), mean ± SD) of the same molecule?
Answer: The Body weight was 20.1 ± 0.9 g.

Question: What about the “Fecal scoring average value” (DSS + 100 mg/kg/day oral, day −5 (before test substance), score 0-3, mean ± SD) of the same molecule?
Answer: Its value is 0.0 ± 0.0.

Question: And the “Colon length compared with DSS group” value (Group Nos. 3 to 5 (1, 10, 100 mg/kg/day) and Group No. 6 (50 mg/kg/day), in words)?
Answer: The value was “longer length of the colon than DSS group”.

Question: And the “Colon wet weight compared with DSS group” value (all treated groups of Table 5, in words)?
Answer: The value was “suppressed weight increases compared with DSS group”.

Source: patent US20210052537A1, “COLITIS AMELIORATING AGENT” (ASTA PHARMACEUTICALS, CO., LTD., priority 2018, published 2021)
